# Measured values as given in US7977327B2, “Substituted pyrrolidine derivative” (Daiichi Sankyo Company, Limited, priority 2004, dated 2011).
# Where a name gives a salt, the structure may show the parent alone. Read-outs that look alike come from different tables or passages of the source. Marks after values point to notes of the source that are not given here.
# Tests used:
# [1] = test system: E. coli NIHJ; test: Antibacterial activity (MIC), standard method of the Japan Society of Chemotherapy; format: cell-based
# Procedure: (§1) The antimicrobial activities of the compounds of the present invention were determined according to a standard method designated by the Japan Society of Chemotherapy. The results are expressed by MIC (μg/mL) (Table 1). In Table 1, S. aureus 870307 and S. pneumonia J24 are quinolone-resistant bacteria.
# [2] = test system: E. faevcalis ATCC 19433; test: as above; format: cell-based
# Procedure: as §1
# [3] = test system: K. pneumoniae TYPE I; test: as above; format: cell-based
# Procedure: as §1
# [4] = test system: P. Vulgalis 08601; test: as above; format: cell-based
# Procedure: as §1
# [5] = test system: P. aeruginosa 32104; test: as above; format: cell-based
# Procedure: as §1
# [6] = test system: P. aeruginosa 32121; test: as above; format: cell-based
# Procedure: as §1
# [7] = test system: S. aureus 870307; test: as above; format: cell-based
# Procedure: as §1
# [8] = test system: S. aureus FDA 209P; test: as above; format: cell-based
# Procedure: as §1
# [9] = test system: S. epidermidis 56500; test: as above; format: cell-based
# Procedure: as §1
# [10] = test system: S. flexneri 2A 5503; test: as above; format: cell-based
# Procedure: as §1
# [11] = test system: S. maltophilia IID 1275; test: as above; format: cell-based
# Procedure: as §1
# [12] = test system: S. marcescens 10100; test: as above; format: cell-based
# Procedure: as §1
# [13] = test system: S. pneumoniae J24; test: as above; format: cell-based
# Procedure: as §1
# [14] = test system: S. pyogenes G-36; test: as above; format: cell-based
# Procedure: as §1
# [15] = test system: Slc:ddY male mice; test: Effect of inducing convulsion, intracisternal administration to mice; format: in vivo; details: i.cist., Probit method
# Procedure: The compounds (Compound Nos. 1, 2, and 3) of the present invention and Comparative Compounds A and B were individually dissolved in 5% glucose, to thereby prepare several samples to be tested. Groups of six-week-old Slc:ddY male mice (body weight: 23.9 to 27.4 g), each group consisting of 6 mice, were employed in the test. Each of the above-prepared samples was administered intracisternally to each mouse belonging to each group at concentrations shown in Tables 2 and 3 (5 μL/mouse). During 30 minutes after administration, it was observed whether each mouse suffered convulsion or died in an individual cage. Administration was performed according to the method described by Ueda, et al. (Reference 1).
# Reference 1: Ueda H, Amano H, Shiomi H, Takagi H: Comparison of the analgesic effects of various opioid peptides by a newly devised intracisternal injection technique in conscious mice. Eur J Pharmacol. 1979; 56: 265-8.
# Significant difference test between groups was performed in terms of incidence of convulsion according to the Fisher's direct probability calculation method (one-sided test, level of significance: P<0.05). On the basis of percentile incidence of convulsion, CD50 (50% concentration for inducing convulsion) and 95% confidence limit were calculated by the Probit method.
# [16] = test system: Chinese hamster lung (CHL/IU) cells; test: Effect of inducing chromosomal aberration; format: cell-based; details: for Percentile induction of structural aberration (TA %): 24 hours, CHL/IU cells
# Procedure: From each sample solution, samples to be tested having a concentration of 1, 3, 10, 30, 50, and 100 μg/mL (as reduced to free form) were prepared. As a negative control, 0.1 mol/L NaOH was employed.
# Chinese hamster lung (CHL/IU) cells in logarithmic growth phase were employed. The cells were treated in a culture solution containing each sample to be tested for 24 hours. Subsequently, a chromosome specimen was prepared from the thus-treated cells. The culture solution employed was an Eagle's MEM (product of NISSUI PHARMACEUTICAL CO., LTD.) medium containing 15% fetal bovine serum (15% FBS-MEM).
# In each sample concentration, 100 cells during metaphase were observed, to thereby record types and numbers of the chromosomal aberration.
# [17] = Shigella flexneri, 2A5503, read-out: MIC
# [18] = Escherichia coli, E. coli NIHJ, read-out: MIC
# [19] = E. faevcalis ATCC 19433, read-out: MIC
# [20] = Klebsiella pneumoniae, K. pneumoniae TYPE I, read-out: MIC
# [21] = P. Vulgalis 08601, read-out: MIC
# [22] = Pseudomonas aeruginosa, P. aeruginosa 32104, read-out: MIC
# [23] = Pseudomonas aeruginosa, P. aeruginosa 32121, read-out: MIC
# [24] = Staphylococcus aureus, S. aureus 870307, quinolone-resistant, read-out: MIC
# [25] = Staphylococcus aureus, FDA209P, S. aureus FDA 209P, read-out: MIC
# [26] = Staphylococcus epidermidis, S. epidermidis 56500, read-out: MIC
# [27] = Stenotrophomonas maltophilia, IID1275, S. maltophilia IID 1275, read-out: MIC
# [28] = Serratia marcescens, S. marcescens 10100, read-out: MIC
# [29] = Streptococcus pneumoniae, S. pneumoniae J24, quinolone-resistant, read-out: MIC
# [30] = Streptococcus pyogenes, G36, S. pyogenes G-36, read-out: MIC
Compound,"MIC [10, 17]","MIC [1, 18]","MIC [2, 19]","MIC [3, 20]","MIC [4, 21]","MIC [5, 22]","MIC [6, 23]","MIC [7, 24]","MIC [8, 25]","MIC [9, 26]","MIC [11, 27]","MIC [12, 28]","MIC [13, 29]","MIC [14, 30]",melting point,Percentile induction of structural aberration (TA %) ([16]; 1 μg/mL),Percentile induction of structural aberration (TA %) ([16]; 3 μg/mL),Percentile induction of structural aberration (TA %) ([16]; 10 μg/mL),Percentile induction of structural aberration (TA %) ([16]; 30 μg/mL),Percentile induction of structural aberration (TA %) ([16]; 50 μg/mL),also measured
"COc1c(N2C[C@@H](N)[C@@H](C)C2)c(F)cc2c(=O)c(C(=O)O)cn([C@@H]3C[C@@H]3F)c12 [Comparative Compound A, 7-[(3S,4S)-3-Amino-4-methylpyrrolidin-1-yl]-6-fluoro-1-[(1R,2S)-2-fluorocyclopropyl]-1,4-dihydro-8-methoxy-4-oxoquinoline-3-carboxylic acid-hydrochloride, reference compound]",0.006 mg/L,–,–,–,–,–,–,–,–,–,–,–,–,–,–,–,–,–,–,–,"MIC ([1]; Escherichia coli): 0.006 mg/L; MIC [2]: 0.1 mg/L; MIC ([3]; Klebsiella pneumoniae): 0.05 mg/L; MIC [4]: 0.006 mg/L; MIC ([5]; Pseudomonas aeruginosa, 32104): 0.1 mg/L; MIC ([6]; Pseudomonas aeruginosa, 32121): 0.05 mg/L; MIC ([7]; Staphylococcus aureus, 870307): 0.39 mg/L; MIC ([8]; Staphylococcus aureus, FDA209P): 0.012 mg/L; MIC ([9]; Staphylococcus epidermidis, 56500): 0.05 mg/L; MIC ([11]; Stenotrophomonas maltophilia, IID1275): 0.1 mg/L; MIC ([12]; Serratia marcescens, 10100): 0.05 mg/L; MIC ([13]; Streptococcus pneumoniae, J24): 0.025 mg/L; MIC ([14]; Streptococcus pyogenes, G36): 0.05 mg/L; CD50 (50% concentration for inducing convulsion), with 95% confidence limit [15]: 12.7 (7.7-24.9)^a) μg/5 μL/mouse"
"COc1c(N2C[C@@H](N)[C@@H](C3CC3)C2)c(F)cc2c(=O)c(C(=O)O)cn([C@@H]3C[C@@H]3F)c12 [Compound No. 8, 7-[(3S,4S)-3-Amino-4-cyclopropylpyrrolidin-1-yl]-6-fluoro-1-[(1R,2S)-2-fluorocyclopropyl]-8-methoxy-1,4-dihydro-4-oxoquinoline-3-carboxylic acid]",0.025 mg/L,0.006 mg/L,0.1 mg/L,0.05 mg/L,0.025 mg/L,0.2 mg/L,0.1 mg/L,0.39 mg/L,0.012 mg/L,0.1 mg/L,0.2 mg/L,0.1 mg/L,0.1 mg/L,0.1 mg/L,211 to 214 °C,–,–,–,–,–,–
"Cc1c(N2C[C@@H](N)[C@@H](C(C)C)C2)c(F)cc2c(=O)c(C(=O)O)cn([C@@H]3C[C@@H]3F)c12 [Compound No. 16, 7-[(3S,4S)-3-Amino-4-isopropylpyrrolidine-1-yl]-6-fluoro-1-[(1R,2S)-2-fluorocyclopropyl]-8-methyl-1,4-dihydro-4-oxoquinoline-3-carboxylic acid]",0.006 mg/L,0.006 mg/L,0.1 mg/L,0.025 mg/L,0.025 mg/L,0.2 mg/L,0.1 mg/L,0.1 mg/L,0.006 mg/L,0.025 mg/L,0.05 mg/L,0.05 mg/L,0.05 mg/L,0.025 mg/L,124 to 127 °C,–,–,–,–,–,–
"O=C(O)c1cn(C2CC2)c2cc(N3CCNCC3)c(F)cc2c1=O [CPFX, reference compound]",–,–,–,–,–,–,–,–,–,–,–,–,–,–,–,–,–,–,–,–,"MIC ([1]; E. coli NIHJ): ≦0.003 μg/mL; MIC ([2]; E. faevcalis ATCC 19433): 0.78 mg/L; MIC ([3]; K. pneumoniae TYPE I): 0.025 mg/L; MIC ([4]; P. Vulgalis 08601): ≦0.003 μg/mL; MIC ([5]; P. aeruginosa 32104): 0.05 mg/L; MIC ([6]; P. aeruginosa 32121): 0.025 mg/L; MIC ([7]; S. aureus 870307, quinolone-resistant): >6.25 mg/L; MIC ([8]; S. aureus FDA 209P): 0.1 mg/L; MIC ([9]; S. epidermidis 56500): 0.2 mg/L; MIC [10]: 0.006 mg/L; MIC ([11]; S. maltophilia IID 1275): 0.78 mg/L; MIC ([12]; S. marcescens 10100): 0.025 mg/L; MIC ([13]; S. pneumoniae J24, quinolone-resistant): 0.39 mg/L; MIC ([14]; S. pyogenes G-36): 1.56 mg/L"
"Cc1c(N2C[C@@H](N)[C@@H](C)C2)c(F)cc2c(=O)c(C(=O)O)cn(C3CC3)c12 [Comparative Compound C, reference compound]",0.025 mg/L,0.012 mg/L,0.2 mg/L,0.05 mg/L,0.05 mg/L,0.39 mg/L,0.2 mg/L,1.56 mg/L,0.025 mg/L,0.1 mg/L,0.2 mg/L,0.2 mg/L,0.1 mg/L,0.2 mg/L,–,3%,4%,5%,72* %,98* %,Percentile induction of structural aberration (TA %) ([16]; 100 μg/mL): TOX*^2; Observation of chromosomes (cytotoxicity) ([16]; at a concentration of 100 μg/mL): could not be observed
"CC[C@H]1CN(c2c(F)cc3c(=O)c(C(=O)O)cn([C@@H]4C[C@@H]4F)c3c2C)C[C@H]1N [Compound No. 2, 7-[(3S,4S)-3-Amino-4-ethylpyrrolidin-1-yl]-6-fluoro-1-[(1R,2S)-2-fluorocyclopropyl]-8-methyl-1,4-dihydro-4-oxoquinoline-3-carboxylic acid]",≤ 0.003 mg/L,≤ 0.003 mg/L,0.1 mg/L,0.025 mg/L,0.006 mg/L,0.05 mg/L,0.025 mg/L,0.39 mg/L,0.006 mg/L,0.025 mg/L,0.05 mg/L,0.025 mg/L,0.025 mg/L,0.025 mg/L,–,1%,1%,1%,2%,3%,Percentile induction of structural aberration (TA %) ([16]; 100 μg/mL): 8%; Significant increase in number of the cells exhibiting chromosomal aberration ([16]; at a concentration of up to 100 μg/mL): not observed
